Values quoted from earlier work as cited in patent US20070020642A1, “Structural interaction fingerprint” (priority 2003, published 2007).

Target: p38 (Homo sapiens, UniProt Q16539)
Conditions: result in words, known from the literature

p38, sequence (Q16539 whole entry): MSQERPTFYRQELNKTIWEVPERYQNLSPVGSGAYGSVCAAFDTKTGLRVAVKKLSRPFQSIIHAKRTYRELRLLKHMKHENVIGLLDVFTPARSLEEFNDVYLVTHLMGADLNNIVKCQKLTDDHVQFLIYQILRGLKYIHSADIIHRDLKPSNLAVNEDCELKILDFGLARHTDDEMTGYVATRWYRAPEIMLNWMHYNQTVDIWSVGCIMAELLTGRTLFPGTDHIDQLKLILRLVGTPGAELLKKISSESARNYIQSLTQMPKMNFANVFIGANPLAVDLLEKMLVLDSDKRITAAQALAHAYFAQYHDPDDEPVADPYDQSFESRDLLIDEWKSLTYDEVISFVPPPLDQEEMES

For `Fc1ccc(-c2nc3n(c2-c2ccncc2)CCS3)cc1` [SKF-86002], the p38 inhibition activity is listed as “potent p38 inhibitors”.

For `O=C(C(=C1SCS1)c1ccncc1)c1ccc(OC(F)(F)F)cc1` [Cmp-59076, 2-[1,3]Dithietan-2-pyridin-4-yl-1-(4-trifluoromethoxy-phenyl)-ethanone], the p38 inhibition activity is given as “no p38 inhibition activity”.
